# How the values were obtained:
# MOX-1 β-lactamase [1] = biological target: T1, MOX-1 β-lactamase (Klebsiella pneumoniae, UniProt Q51578); test: Inhibition of cephalothin hydrolysis by purified MOX-1, […] min pre-incubation, UV/VIS (Ki and IC50); type: biochemical; set-up: gene blaMOX-1; purified MOX-1, (His)8 tag removed with thrombin
# MOX-1 β-lactamase [2] = biological target: T1, MOX-1 β-lactamase; test: X-ray crystal structure at […] Å; also Ki and IC50 with purified enzyme (cephalothin hydrolysis); type: biochemical; set-up: gene blaMOX-1; N-terminal (His)8-tagged MOX-1 for crystals (model Asp6-Arg305 and Gln310-Gly362); tag removed with thrombin for kinetics
# T1 sequence (Q51578 entry or part of it): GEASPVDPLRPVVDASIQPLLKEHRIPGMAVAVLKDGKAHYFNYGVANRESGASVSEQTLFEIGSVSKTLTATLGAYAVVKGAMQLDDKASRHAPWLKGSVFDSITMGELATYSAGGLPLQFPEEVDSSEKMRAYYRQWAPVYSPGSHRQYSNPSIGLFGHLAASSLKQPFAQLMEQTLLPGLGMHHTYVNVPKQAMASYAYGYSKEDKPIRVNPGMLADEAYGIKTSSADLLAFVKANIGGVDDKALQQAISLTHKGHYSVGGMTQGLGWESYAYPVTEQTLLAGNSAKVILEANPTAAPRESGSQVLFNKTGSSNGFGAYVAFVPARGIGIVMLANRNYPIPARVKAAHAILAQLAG
SMILES,Ki (MOX-1 β-lactamase [1]),Ki (MOX-1 β-lactamase [2])
C[C@H]1[C@H](NC(=O)/C(=N\OC(C)(C)C(=O)O)c2csc(N)n2)C(=O)N1S(=O)(=O)O [Aztreonam],10 ± 1 nM,–
O=C(Cc1cccs1)N[C@@H](Cn1cc(C(=O)O)nn1)B(O)O [S02030],–,560 ± 30 nM
